Assay results reported in PubChem BioAssay AID248 (DTP/NCI, 2004).
Inconclusive results and toxic doses are left out. No stated cut-off is given here; in the data, active means T/C of 150% or more; inactive means T/C below 125%.

Tested on: L1210 leukemia ip in BDF1 mice, survival T/C
Test: NCI In Vivo Anticancer Drug Screen. Data for tumor model L1210 Leukemia (intraperitoneal) in B6D2F1 (BDF1) mice
Conditions: endpoint: mean survival time, higher = longer survival
Procedure, shortened: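 Ratio derived from survival: compound-dosed mice over vehicle-dosed mice, all bearing a transplantable tumor.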

[1] = dose: 12.5 mg/kg/injection, schedule: Q01DX009 (ip), vehicle: saline with Tween-80
[2] = dose: 25.0 mg/kg/injection, schedule: Q01DX001 (ip), vehicle: Klucel (hydroxypropylcellulose) (HPC)
[3] = dose: 50.0 mg/kg/injection, schedule: Q01DX001 (ip), vehicle: Klucel (hydroxypropylcellulose) (HPC)
[4] = dose: 100.0 mg/kg/injection, schedule: Q01DX001 (ip), vehicle: Klucel (hydroxypropylcellulose) (HPC)
[5] = dose: 200.0 mg/kg/injection, schedule: Q01DX001 (ip), vehicle: Klucel (hydroxypropylcellulose) (HPC)
[6] = dose: 400.0 mg/kg/injection, schedule: Q01DX001 (ip), vehicle: Klucel (hydroxypropylcellulose) (HPC)

Measured: T/C

Cc1c(Cl)cccc1CC(Cl)C#N (stereo unspecified)
inactive: [1] 97 % of control | dose: 25.0 mg/kg/injection, schedule: Q01DX009 (ip), vehicle: saline with Tween-80 90 % of control | dose: 50.0 mg/kg/injection, schedule: Q01DX009 (ip), vehicle: saline with Tween-80 87 % of control | dose: 100.0 mg/kg/injection, schedule: Q01DX009 (ip), vehicle: saline with Tween-80 89 % of control

CCOP(=S)(N/N=C1/C2(C)CCC(C2)C1(C)C)OCC (stereo unspecified)
inactive: dose: 100.0 mg/kg/injection, schedule: Q01DX001 (ip), vehicle: saline 97 % of control | dose: 200.0 mg/kg/injection, schedule: Q01DX001 (ip), vehicle: saline 97 % of control | dose: 400.0 mg/kg/injection, schedule: Q01DX001 (ip), vehicle: saline 91 % of control

Cn1nc(N)c2nccnc21
inactive: dose: 50.0 mg/kg/injection, schedule: Q01DX009 (ip), vehicle: saline 98 % of control | dose: 100.0 mg/kg/injection, schedule: Q01DX009 (ip), vehicle: saline 104 % of control | dose: 100.0 mg/kg/injection, schedule: Q04DX003 (ip), vehicle: alcohol 100 % of control | dose: 200.0 mg/kg/injection, schedule: Q04DX003 (ip), vehicle: alcohol 98 % of control

O=C(COc1ccccc1)Nc1ccccc1C(=O)O
inactive: dose: 100.0 mg/kg/injection, schedule: Q01DX001 (ip), vehicle: gum acacia 97 % of control | dose: 200.0 mg/kg/injection, schedule: Q01DX001 (ip), vehicle: gum acacia 90 % of control | dose: 400.0 mg/kg/injection, schedule: Q01DX001 (ip), vehicle: gum acacia 90 % of control

COc1ccc(NC(=O)CCc2ccccc2)cc1
inactive: dose: 12.5 mg/kg/injection, schedule: Q01DX001 (ip), vehicle: Klucel (hydroxypropylcellulose) (HPC) 98 % of control | [2] 88 % of control | [3] 93 % of control | [4] 86 % of control | [5] 88 % of control | [6] 91 % of control

CC1=C2CC(C(C)(C)O)CCC2(C)CC/C1=N\N1CCCCC1 (stereo unspecified)
inactive: dose: 100.0 mg/kg/injection, schedule: Q04DX003 (sc), vehicle: olive oil, sesame oil, peanut oil 100 % of control | dose: 200.0 mg/kg/injection, schedule: Q04DX003 (sc), vehicle: olive oil, sesame oil, peanut oil 107 % of control | dose: 400.0 mg/kg/injection, schedule: Q04DX003 (sc), vehicle: olive oil, sesame oil, peanut oil 105 % of control

C/C(CCO)=N/N=C(N)N
inactive: dose: 15.0 mg/kg/injection, schedule: Q01DX Z (ip), vehicle: methylcellulose (MC) 97 % of control | dose: 30.0 mg/kg/injection, schedule: Q01DX Z (ip), vehicle: methylcellulose (MC) 109 % of control | dose: 30.0 mg/kg/injection, schedule: Q01DX Z (oral), vehicle: methylcellulose (MC) 97 % of control | dose: 60.0 mg/kg/injection, schedule: Q01DX Z (oral), vehicle: methylcellulose (MC) 100 % of control

CCCCCCCCCCCCC/C=C\C(=O)N(CCCCN(C)C)CCCCN(C)C
inactive: dose: 2.0 mg/kg/injection, schedule: Q01DX009 (ip), vehicle: carboxymethylcellulose (CMC) 107 % of control | dose: 4.0 mg/kg/injection, schedule: Q01DX009 (ip), vehicle: carboxymethylcellulose (CMC) 104 % of control | dose: 6.0 mg/kg/injection, schedule: Q01DX009 (ip), vehicle: carboxymethylcellulose (CMC) 101 % of control | dose: 8.0 mg/kg/injection, schedule: Q01DX009 (ip), vehicle: carboxymethylcellulose (CMC) 103 % of control | dose: 10.0 mg/kg/injection, schedule: Q01DX009 (ip), vehicle: carboxymethylcellulose (CMC) 90 % of control

O=C(Nc1ccc(C(=O)O)cc1)Nc1cc([N+](=O)[O-])ccc1F
inactive: dose: 100.0 mg/kg/injection, schedule: Q04DX003 (ip), vehicle: Klucel (hydroxypropylcellulose) (HPC) 92 % of control | dose: 200.0 mg/kg/injection, schedule: Q04DX003 (ip), vehicle: Klucel (hydroxypropylcellulose) (HPC) 94 % of control | dose: 400.0 mg/kg/injection, schedule: Q04DX003 (ip), vehicle: Klucel (hydroxypropylcellulose) (HPC) 94 % of control

C1=Cc2c3c(c4c(c2C1)C=CC4)CC=C3
inactive: [2] 93 % of control | [3] 97 % of control | [4] 101 % of control | dose: 100.0 mg/kg/injection, schedule: Q01DX009 (ip), vehicle: Klucel (hydroxypropylcellulose) (HPC) 95 % of control | [5] 92 % of control | dose: 200.0 mg/kg/injection, schedule: Q01DX009 (ip), vehicle: Klucel (hydroxypropylcellulose) (HPC) 88 % of control | [6] 93 % of control | dose: 400.0 mg/kg/injection, schedule: Q01DX009 (ip), vehicle: Klucel (hydroxypropylcellulose) (HPC) 95 % of control

O=C(C=C(C(F)(F)F)C(F)(F)F)c1cccc(S(=O)(=O)F)c1
inactive: dose: 3.13 mg/kg/injection, schedule: Q01DX009 (ip), vehicle: saline with Tween-80 96 % of control | dose: 6.25 mg/kg/injection, schedule: Q01DX009 (ip), vehicle: saline with Tween-80 100 % of control | [1] 95 % of control
